Measurements taken from US6310040A, “Treating retinal neuronal disorders by the application of insulin-like growth factors and analogs” (Cephalon, Inc., priority 1992, dated 2001).
Where two headings read alike, the source gives them in different places. Non-standard residues stand in square brackets, D forms with d. No end group written: not given here. Tyr(3,5-I2) = N[C@@H](Cc1cc(I)c(O)c(I)c1)C(=O)O

Columns and labels:
photoreceptor cells = assay type: cell-based, rat
Description: To quantitate this assay, we developed a cell-based Rho42 ELISA test as follows: Several postnatal rat retinal cultures containing different numbers of cells, were incubated for 2-4 days following which cultures were fixed and immunolabelled with either the Rho42 monoclonal antibody, or the nonspecific monoclonal antibody P3, secreted by the myeloma cell line P3X6Ag8. Antibody binding was detected using a secondary antibody labelled with horseradish peroxidase and a chromogenic substrate O-phenylenediamine (OPD), having a maximum absorption wavelength of 490 nm. The level of absorption of light at 490 nm measured in the cultures is therefore directly related to the amount of primary antibody that originally bound to the cells. In FIG. 8 it can be seen that there is a linear relationship between the level of absorption at 490 nm and the number of cells in each culture.
Next, rat retinal neuronal cultures were incubated in the presence of IGF-I or IGF-II (54-67) for 48 hours following which they were subjected to the cell-based ELISA test as described above. Both IGF-I and IGF-II (54-67) promoted the survival of photoreceptor cells by 20-30% compared with control untreated cultures.

[1] = test system: postnatal rat retinal neuronal cells; assay: calcein-AM survival assay, dissociated postnatal rat retinal neuronal cultures; assay type: cell-based; conditions: for fluorescence values (total number of cells surviving) versus untreated cultures: peptides 100 uM, postnatal rat retina; for fluorescence values (total number of cells surviving) versus untreated cultures / relative fluorescence units (total number of cells surviving) versus untreated control: 4 days; for relative fluorescence units (total number of cells surviving) versus untreated control: 100 nM, postnatal day 6 rat retina
Description: (§1) Retinas were dissected from embryonic chicks, dissociated by enzymatic digestion and cultured in vitro in defined insulin/serum-free medium according to Sato et al. (1979, Proc. Natl. Acad. Sci. USA 76:514-517). The number of cells in culture was measured using the vital stain calcein-AM. All cells are permeable to calcein-AM, but only live cells are capable of converting this compound into a fluorescent derivative detectable by ordinary methods. In the first experiment, calcein-AM (6 μM) was added to different cultures of retinal cells and the relationship between the level of fluorescence and the number of cells was determined.
To determine the concentration of IGF-I required to promote survival of pre- or postnatal retinal neurons in culture, the following experiments were carried out: Retinal neurons were prepared from dissociated retina obtained from 10 day old chick embryos, or from […] postnatal day 6 rats as described above. Cultures were incubated in the presence of increasing concentrations of IGF-I and the number of cells surviving at 48 hours post-treatment was measured in the calcein-AM assay. […] Based upon previously published data, the concentrations of IGF-I that promote neuronal cell survival in our experiments are consistent with the fact that IGF-I is acting through its own receptor (Karey et al., 1988, In Vitro Cell. Dev. Biol. 24:1107-1113; Ballard et al., 1988, Biochem. J. 249:721-726).
To determine whether retinal survival could be enhanced when incubated in the presence of functional derivatives of IGF-I and IGF-II, a linear fragment of IGF-II that is relatively conserved within both IGF-I and IGF-II, was tested in our assay. The fragment contained a sequence of 14 amino acids from IGF-II (amino acids 54-67, wherein the amino terminal amino acid of IGF-II is number 1).
To determine whether IGF-I, IGF-II, and IGF-III can promote the survival of retinal neuronal cells, dissociated cultures of postnatal rat retina were prepared and assayed for the total number of cells present after incubation in the presence or absence of IGFs. Retinas were dissected from postnatal day 6 rats, dissociated by enzymatic digestion and seeded at a density of 6.25×10^4 cells/cm^2 in defined insulin/serum-free media (Bottenstein et al., 1979, PNAS 76:514-517). These cultures are heterogenous, comprised of at least five independent retinal neuronal cell subpopulations, i.e., amacrine, bipolar, horizontal, photoreceptor and ganglion cells. Cultures were incubated in the presence or absence of 100 nM of each of the IGFs. The total number of cells remaining after 4 days was assayed by incubation with the vital stain calcein-AM at 6 uM. This compound is taken up by all cells but can only be converted to a fluorescent derivative by live cells.
To determine whether linear peptide derivatives of IGFs can support the survival of retinal neuronal cells, dissociated cultures of postnatal rat retina were prepared and assayed for the total number of cells present after incubation in the presence or absence of peptides (100 uM). Retinal neuronal cell cultures were prepared as described in Example 11 and the total number of cells surviving analyzed analogously. Peptides were derived from the amino acid regions 7-30 and 55-70 of IGF-I and […] and the region within IGF-II, amino acids 54-67.

retinal neuronal cells = assay: calcein-AM survival assay, dissociated embryonic chick retinal cultures; assay type: cell-based; conditions: 48 hours post-treatment
Description: To determine whether IGF-1 acts to promote survival of retinal neuronal cells, dissociated cultures of avian retina were prepared from animals at various developmental ages and the number of cells present in the cultures, following incubation for 48 hours in the presence or absence of IGF-I, was measured.
as §1
In the next experiment, IGF-I was added to half of the cultures at a final concentration of 100 nM, and the number of cells remaining at 48 hours post-treatment was measured using the calcein-AM assay described above. […]

retinal neurons = assay: retinal neurite regeneration, phase contrast microscopy; assay type: cell-based; conditions: 100 nM, 2-4 days following treatment, insulin/serum-free media
Description: To determine whether IGF-I affects retinal neurite regeneration, a population of neurons prepared from dissociated retina was cultured in defined insulin/serum-free media in the presence or absence of 100 nM IGF-I. Cultures were examined by phase contrast microscopy at 2-4 days following IGF-I treatment.

[2] = test system: photoreceptor subpopulation of cells; assay: Rho42 antibody fluorescence staining of postnatal rat retinal neuronal cultures; assay type: cell-based; conditions: 100 nM, 48 hours
Description: To determine whether IGF-I or IGF-II (54-67) could specifically promote survival of the photoreceptor subpopulation of cells in rat retinal neuronal cultures, the following experiments were carried out: The monoclonal antibody Rho42, which binds to an antigenic epitope within the extracellular domain of rhodopsin expressed on the surface of rod photoreceptor cells (Molday and MacKenzie, 1983, Biochemistry 22:653), was used in this assay. Postnatal rat retinal neuronal cultures were incubated in the presence or absence of 100 nM of IGF-I for 48 hours. Cells were harvested and reacted with Rho42 to which a fluorescent label had been added. Slides were prepared and the level of fluorescence in the cultures was qualitatively assessed using a fluorescence microscope.

Q: `CC(C)C[C@H](NC(=O)[C@H](C)N)C(=O)N[C@@H](CC(C)C)C(=O)N[C@@H](CCC(=O)O)C(=O)N[C@H](C(=O)N[C@@H](Cc1ccc(O)cc1)C(=O)N[C@@H](CS)C(=O)N[C@@H](C)C(=O)N[C@H](C(=O)N1CCC[C@H]1C(=O)N[C@@H](C)C(=O)N[C@@H](CCCCN)C(=O)N[C@@H](CO)C(=O)N[C@@H](CCC(=O)O)C(=O)O)[C@@H](C)O)[C@@H](C)O` [IGF-II (54-67), ALLETYCATPAKSE] was tested. Which “promoted survival of photoreceptor cells compared with control untreated cultures” value (photoreceptor cells; 48 h) did it give?
A: 20-30%

Q: How did the “fluorescence values (total number of cells surviving) versus untreated cultures” value [1] turn out when CAPAKSE was run?
A: higher fluorescence values than untreated cultures

Q: Which “fluorescence values (total number of cells surviving) versus untreated cultures” value [1] does the source give for CATPAKSE here?
A: higher fluorescence values than untreated cultures

Q: With EALLETYCATPAKSE as the compound, how does the “fluorescence values (total number of cells surviving) versus untreated cultures” value [1] read?
A: higher fluorescence values than untreated cultures

Q: With “GAELVDALQFVSGDRGFYFNKPTG (GAELVDALQFYSGDRGFYFNKPTG)” as the compound, how does the “fluorescence values (total number of cells surviving) versus untreated cultures” value [1] read?
A: higher fluorescence values than untreated cultures

Q: What does the source list for “IGF-I: Recombinant human insulin-like growth factor I (somatomedin C), 70 amino acids, SEQ ID NO:1”?
A: enhanced survival of cells compared to control, untreated cultures (retinal neuronal cells; 100 nM, retinal cultures from embryos at 8, 10, 12 and 14 days of age): 20-60%; survival of prenatal retinal neurons versus concentration (retinal neuronal cells; 10 day old chick embryos, increasing concentrations): promote survival of retinal neurons in culture in a dose-dependent manner; relative fluorescence units (total number of cells surviving) versus untreated control [1]: higher than that found for untreated control cultures; survival of postnatal retinal neurons versus concentration ([1]; postnatal day 6 rats, increasing concentrations, 48 hours post-treatment): promote survival of retinal neurons in culture in a dose-dependent manner; cells with neurites (axonal regeneration) (retinal neurons): more cells with neurites than untreated control cultures; level of Rho42 fluorescence (photoreceptor survival), qualitative [2]: increased level of fluorescence compared to untreated cultures; promoted survival of photoreceptor cells compared with control untreated cultures (photoreceptor cells; 48 hours, rat retinal neuronal cultures): 20-30%

Q: How did the “relative fluorescence units (total number of cells surviving) versus untreated control” value [1] turn out when “IGF-II: Recombinant human insulin-like growth factor II, 67 amino acids, SEQ ID NO:16” was run?
A: higher than that found for untreated control cultures

Q: With “IGF-III: truncated form of IGF-I lacking the three N-terminal amino acid residues, SEQ ID NO:2” as the compound, how does the “relative fluorescence units (total number of cells surviving) versus untreated control” value [1] read?
A: higher than that found for untreated control cultures

Q: For “TY(I2)CAPAKSE (T[Tyr(3,5-I2)]CAPAKSE) [iodinated TYCAPAKSE]”, which “fluorescence values (total number of cells surviving) versus untreated cultures” value [1] is on record?
A: higher fluorescence values than untreated cultures

Q: Which “fluorescence values (total number of cells surviving) versus untreated cultures” value [1] does the source give for TYCAPA here?
A: higher fluorescence values than untreated cultures

Q: How did the “fluorescence values (total number of cells surviving) versus untreated cultures” value [1] turn out when YCAPA was run?
A: higher fluorescence values than untreated cultures
